Test results from patent EP0644194A1, “PYRIDOTHIAZINEACETIC ACID COMPOUND, PROCESS FOR PRODUCING THE SAME, AND USE THEREOF” (THE GREEN CROSS CORPORATION, priority 1993, dated 1994).
Where two headings read alike, the source gives them in different places. Marks after values point to notes of the source that are not given here.

How the values were obtained:
[1] = system: sorbitol accumulation in tissues; experiment: Inhibitory action on sorbitol accumulation in tissues of rats with experimental diabetes (streptozotocin); format: in vivo, Sprague-Dawley rats; settings: percent of control (100%), oral at 4, 8 and 24 hours after streptozotocin, Example 9 at 10 mg/kg, EPALRESTAT at 30 mg/kg, 3 hours after final administration; for Sorbitol accumulation, nerve: sciatic nerve
Procedure: Sprague-Dawley rats (male, 6 weeks old, 5-6 per group) were fasted for 18 hours and injected with streptozotocin (SIGMA, 60 mg/kg) via the tail vein under etherization to prepare rats with diabetes.
The test drugs were orally administered at 4, 8 and 24 hours after the injection of streptozotocin. The compound of Example 9 was administered at 10 mg/kg and EPALRESTAT was administered at 30 mg/kg as a 0.5% carboxymethylcellulose suspension, respectively. During the administrations, the rats were raised under free access to feed and water and the sorbitol content in the tissues (erythrocytes, sciatic nerve, lens) was determined 3 hours after the final administration, according to the enzyme method of H.Y. Bergmeyer et al. [Methods of Enzymatic Analysis, vol. 3, 1323-1330 (1974)] with the use of SDH (sorbitol dehydrogenase) and NAD (β-nicotinamide adenine dinucleotide). The results (sorbitol accumulation) are expressed in percent (%) relative to the value of a control group administered with a 0.5% carboxymethylcellulose solution (solvent) instead of the drug, which was taken as 100%.

aldose reductase = target: T1, aldose reductase (Sus scrofa, UniProt P80276); experiment: Aldose reductase inhibitory action (method of S. Hayman et al., absorbance change at 340 nm); format: biochemical, swine
T1 construct: swine lenses freeze-stored at -80°C were homogenized with distilled water; from tissue; host or cells: swine lens
Procedure: That is, swine lenses freeze-stored at -80°C were homogenized with distilled water and cetrifuged at 10,000 G for 15 minutes. The supernatant was prepared into a 40% ammonium sulfate solution and subjected to cetrifugation at 10,000 G for 10 minutes.
The activity of aldose reductase was determined by the above-mentioned method of S. Hayman et al. That is, the above-mentioned enzyme solution (25 µl) and a drug solution (25 µl) dissolved in 1% DMSO at various concentrations were added to a 40 mM phosphate buffer (200 µl, pH 6.2) containing final concentrations of 0.4 M lithium sulfate, 0.1 mM NADPH (reduced type nicotinamide adenine dinucleotide phosphate) and 3 mM dl-glyceraldehyde as a substrate. […] The test drug number indicates the example number to be mentioned later. […]

ICR mice = experiment: Acute toxicity of a single oral dose; format: in vivo; settings: 300 mg/kg single oral dose, male ICR mice, observation for 14 days
Procedure: Normal ICR mice (male, 7 weeks old, 5 per group) were fasted for 18 hours and the compound (300 mg/kg) of Example 9 was orally administered as a 0.5% carboxymethylcellulose suspension. To the control group, a 0.5% carboxymethylcellulose solution alone was orally administered and observation was continued for 14 days thereafter, during which period the mice were allowed to take feed and water freely.

[2] = swine lens enzyme, 3 mM dl-glyceraldehyde as substrate, 0.1 mM NADPH, pH 6.2, 25°C, read-out: IC₅₀

SMILES | Sorbitol accumulation, erythrocytes [1] | Sorbitol accumulation, lens [1] | Sorbitol accumulation, nerve [1] | IC50 (aldose reductase) | IC50 (aldose reductase; [2]) | death cases (ICR mice) | body weight transition (ICR mice; compared with control group)
CC(/C=C1\SC(=S)N(CC(=O)O)C1=O)=C\c1ccccc1 [EPALRESTAT, reference compound] | 66.5% | 89.1% | 99.9% | 21 nM | – | – | –
O=C(O)CC1Sc2ncccc2N(Cc2nc3c(F)c(F)ccc3s2)C1=O (stereo not shown) [Compound of Ex.10, 2-[4-(4,5-Difluorobenzothiazol-2-yl)methyl-3-oxo-3,4-dihydro-2H-pyrido[2,3-b][1,4]thiazin-2-yl]acetic acid] | – | – | – | – | 12 nM | – | –
O=C(O)CC1Sc2ncccc2N(Cc2nc3c(Cl)c(Cl)ccc3s2)C1=O (stereo not shown) [Compound of Ex.12, 2-[4-(4,5-Dichlorobenzothiazol-2-yl)methyl-3-oxo-3,4-dihydro-2H-pyrido[2,3-b][1,4]thiazin-2-yl]acetic acid] | – | – | – | – | 12 nM | – | –
O=C(O)CC1Sc2cnccc2N(Cc2nc3c(F)c(F)cc(F)c3s2)C1=O (stereo not shown) [Compound of Ex.14, 2-[4-(4,5,7-Trifluorobenzothiazol-2-yl)methyl-3-oxo-3,4-dihydro-2H-pyrido[3,4-b][1,4]thiazin-2-yl]acetic acid] | – | – | – | – | 12 nM | – | –
O=C(O)CC1Sc2ncccc2N(Cc2nc3c(F)c(F)cc(F)c3s2)C1=O (stereo not shown) [Compound of Ex. 9, 2-[4-(4,5,7-Trifluorobenzothiazol-2-yl)methyl-3-oxo-3,4-dihydro-2H-pyrido[2,3-b][1,4]thiazin-2-yl]acetic acid] | 59.0* % | 66.2* % | 3.3* % | – | 11 nM | no death case | showed transition in the same manner as in the control group
